Excerpt: It has been discovered that squalene is a particularly suitable substance for use in some invention embodiments. […] Thus, for example, lycopene and ubichinon are toxic in concentrations of 10 μmol/l. Squalene, on the other hand, is not toxic, even in concentrations of 100 μmol/l.

Row | Molecule | concentration at which the substance is toxic
1 | CC(C)=CCCC(C)=CCCC(C)=CCCC=C(C)CCC=C(C)CCC=C(C)C [Squalene, 2,6,10,15,19,23-hexamethyl-2,6,10,14,18,22-tetracosahexaene] | > 100 µM
2 | CC(C)=CCC/C(C)=C/C=C/C(C)=C/C=C/C(C)=C/C=C/C=C(C)/C=C/C=C(C)/C=C/C=C(\C)CCC=C(C)C [lycopene] | 10 µM
3 | ubichinon | 10 µM

From US20110034990A1, “BIOCORRODIBLE IMPLANT WITH ACTIVE COATING” (priority 2009, published 2011)
